Results on 23 molecules are retold here after US20250122225A1, “MASP-2 INHIBITORS AND METHODS OF USE” (Omeros Corporation, priority 2023, published 2025).

For one assay, the target named is T1, human α-thrombin (Homo sapiens, UniProt P00734).
T1 construct: enzyme (human α-thrombin (BioPharm® Lab.)) in assay buffer; purchased BioPharm® Lab
As to the kind of experiment: Enzymatic assay for thrombin (fluorogenic peptide substrate Boc-VPR-AMC). The assay is classed as biochemical. The method, boiled down:
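Assay conditions kept the reaction linear in time, enzyme and substrate, so IC50 approximated Ki apart from tight- or slow-binding cases. Boc-VPR-AMC cleavage by human α-thrombin proceeded 20 min at room temperature in Hepes pH 7.4/NaCl/Tween 20 buffer, then was acid-quenched and read by fluorescence.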

In a further assay the target is T2, MASP-2 (CCP1-CCP2-SP) (Homo sapiens, UniProt O00187).
T2 construct: 15 μL of Enzyme MASP-2 (CCP1-CCP2-SP) in Assay Buffer
T2 sequence (O00187 445-686 limits assumed): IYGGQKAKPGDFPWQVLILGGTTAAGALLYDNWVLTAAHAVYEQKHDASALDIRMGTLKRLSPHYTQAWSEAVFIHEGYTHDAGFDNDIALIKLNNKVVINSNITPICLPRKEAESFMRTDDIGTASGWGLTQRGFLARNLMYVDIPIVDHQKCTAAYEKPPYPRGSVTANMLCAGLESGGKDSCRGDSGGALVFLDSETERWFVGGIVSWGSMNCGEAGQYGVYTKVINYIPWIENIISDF
T2 sequence (O00187 287-444 partner limits assumed): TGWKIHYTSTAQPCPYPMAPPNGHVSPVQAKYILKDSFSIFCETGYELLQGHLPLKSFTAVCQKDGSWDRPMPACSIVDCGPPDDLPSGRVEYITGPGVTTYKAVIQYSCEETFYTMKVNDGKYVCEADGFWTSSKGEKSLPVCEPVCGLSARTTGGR
As to the kind of experiment: Enzymatic assay for MASP-2 inhibitory activity (fluorogenic substrate). The assay is classed as biochemical. The method, boiled down: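 Fluorescence was normalized between no-enzyme and DMSO-only controls to derive % activity, with IC50 taken as equivalent to Ki except for tight-binding inhibitors. Reactions ran 20 min at room temperature in HEPES pH 7.4/NaCl/Tween 20 buffer, using the C2-derived fluorogenic substrate, before acetic acid stop.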

Molecules are shown by their SMILES. Counter-ions that a name gives are not always drawn.

A word on the Ki: it is a measure of affinity in units of concentration, obtained from inhibition or displacement. A high value points to a looser hold on the target. For the molecule `COc1cc(C)cc(CNc2ncc3n(c2=O)[C@H](C(=O)NCc2cc4c(s2)CNC4)CC3)c1` [Compound 91, (S)-N-((5,6-dihydro-4H-thieno[2,3-c]pyrrol-2-yl)methyl)-3-((3-methoxy-5-methylbenzyl)amino)-4-oxo-4,6,7,8-tetrahydropyrrolo[1,2-a]pyrazine-6-carboxamide], the inhibition constant (Ki) at human α-thrombin and at MASP-2 (CCP1-CCP2-SP) was below 500 nM throughout.

Consider `Cc1cc(C)cc([C@@H](CO)Nc2ncc3n(c2=O)[C@H](C(=O)NCc2cc4c(s2)CNC4)CC3)c1` [Compound 92, (S)-N-((5,6-dihydro-4H-thieno[2,3-c]pyrrol-2-yl)methyl)-3-(((S)-1-(3,5-dimethylphenyl)-2-hydroxyethyl)amino)-4-oxo-4,6,7,8-tetrahydropyrrolo[1,2-a]pyrazine-6-carboxamide], for which the Ki at human α-thrombin and at MASP-2 (CCP1-CCP2-SP) was below 500 nM in each case.

As to `Cc1ccccc1[C@@H](C)Nc1ncc2n(c1=O)[C@H](C(=O)NCc1cc3c(s1)CNC3)CC2` [Compound 93, (S)-N-((5,6-dihydro-4H-thieno[2,3-c]pyrrol-2-yl)methyl)-4-oxo-3-(((R)-1-(o-tolyl)ethyl)amino)-4,6,7,8-tetrahydropyrrolo[1,2-a]pyrazine-6-carboxamide], the Ki on human α-thrombin and on MASP-2 (CCP1-CCP2-SP) was below 500 nM each time.

Turning to `Cc1ccccc1[C@H](C)Nc1ncc2n(c1=O)[C@H](C(=O)NCc1cc3c(s1)CNC3)CC2` [Compound 94, (S)-N-((5,6-dihydro-4H-thieno[2,3-c]pyrrol-2-yl)methyl)-4-oxo-3-(((S)-1-(o-tolyl)ethyl)amino)-4,6,7,8-tetrahydropyrrolo[1,2-a]pyrazine-6-carboxamide], the Ki on human α-thrombin is 500 to 2500 nM; at MASP-2 (CCP1-CCP2-SP), below 500 nM.

For `Cc1cccc([C@H](C)Nc2ncc3n(c2=O)[C@H](C(=O)NCc2cc4c(s2)CNC4)CC3)c1` [Compound 95, (S)-N-((5,6-dihydro-4H-thieno[2,3-c]pyrrol-2-yl)methyl)-4-oxo-3-(((S)-1-(m-tolyl)ethyl)amino)-4,6,7,8-tetrahydropyrrolo[1,2-a]pyrazine-6-carboxamide], the Ki on human α-thrombin was 500 to 2500 nM; on MASP-2 (CCP1-CCP2-SP), below 500 nM.

For the molecule `Cc1cc(C)cc(CNc2ncc3n(c2=O)[C@H](C(=O)NCc2cc4c(s2)CNC4)CC3)c1` [Compound 96, (S)-N-((5,6-dihydro-4H-thieno[2,3-c]pyrrol-2-yl)methyl)-3-((3,5-dimethylbenzyl)amino)-4-oxo-4,6,7,8-tetrahydropyrrolo[1,2-a]pyrazine-6-carboxamide], the inhibitory constant (Ki) at human α-thrombin and at MASP-2 (CCP1-CCP2-SP) was below 500 nM each time.

As for `Cc1cc(C)cc(CNc2ncc3n(c2=O)[C@H](C(=O)NCc2cc4cnccc4[nH]2)CC3)c1` [Compound 97, (S)—N-((1H-pyrrolo[3,2-c]pyridin-2-yl)methyl)-3-((3,5-dimethylbenzyl)amino)-4-oxo-4,6,7,8-tetrahydropyrrolo[1,2-a]pyrazine-6-carboxamide trifluoroacetate], the Ki was 500 to 2500 nM on human α-thrombin and below 500 nM on MASP-2 (CCP1-CCP2-SP).

Turning to `Cc1nc(N)ccc1CNC(=O)[C@@H]1CCc2c(Cl)nc(NCc3cccc(S(C)(=O)=O)c3)c(=O)n21` [Compound 98, (S)—N-((6-amino-2-methylpyridin-3-yl)methyl)-1-chloro-3-((3-(methylsulfonyl)benzyl)amino)-4-oxo-4,6,7,8-tetrahydropyrrolo[1,2-a]pyrazine-6-carboxamide trifluoroacetate], the Ki was 500 to 2500 nM at human α-thrombin and below 500 nM on MASP-2 (CCP1-CCP2-SP).

On to `Cc1nc(N)ccc1CNC(=O)[C@@H]1CCc2cnc(NCc3cccc(S(C)(=O)=O)c3)c(=O)n21` [Compound 99, (S)—N-((6-amino-2-methylpyridin-3-yl)methyl)-3-((3-(methylsulfonyl)benzyl)amino)-4-oxo-4,6,7,8-tetrahydropyrrolo[1,2-a]pyrazine-6-carboxamide trifluoroacetate], for which the Ki on human α-thrombin and at MASP-2 (CCP1-CCP2-SP) was below 500 nM in each case.

Turning to `O=C(NCc1cc2cnccc2[nH]1)[C@@H]1CCc2c(Cl)nc(NC3CCC3)c(=O)n21` [Compound 100, (S)—N-((1H-pyrrolo[3,2-c]pyridin-2-yl)methyl)-1-chloro-3-(cyclobutylamino)-4-oxo-4,6,7,8-tetrahydropyrrolo[1,2-a]pyrazine-6-carboxamide trifluoroacetate], the inhibition constant (Ki) at human α-thrombin was above 25000 nM; at MASP-2 (CCP1-CCP2-SP) it was below 500 nM.

`O=C(NCc1cc2cnccc2[nH]1)[C@@H]1CCc2c(Cl)nc(NCC3CCOCC3)c(=O)n21` [Compound 101, trifluoroacetate]: the figures for the Ki on human α-thrombin and on MASP-2 (CCP1-CCP2-SP) were above 25000 nM and below 500 nM, respectively.

As to `O=C(NCc1cc2cnccc2[nH]1)[C@@H]1CCc2cnc(NCc3ccccc3)c(=O)n21` [Compound 102, (S)—N-((1H-pyrrolo[3,2-c]pyridin-2-yl)methyl)-3-(benzylamino)-4-oxo-4,6,7,8-tetrahydropyrrolo[1,2-a]pyrazine-6-carboxamide], the values for the Ki on human α-thrombin and at MASP-2 (CCP1-CCP2-SP) were 500 to 2500 nM and below 500 nM, respectively.

As to `Cc1cc2[nH]c(CNC(=O)[C@@H]3CCc4cnc(NCc5ccccc5)c(=O)n43)cc2cn1` [Compound 103, (S)-3-(benzylamino)-N-((6-methyl-1H-pyrrolo[3,2-c]pyridin-2-yl)methyl)-4-oxo-4,6,7,8-tetrahydropyrrolo[1,2-a]pyrazine-6-carboxamide], the Ki at human α-thrombin is above 25000 nM; on MASP-2 (CCP1-CCP2-SP) it was below 500 nM.

Regarding `Cc1nc(N)ccc1CNC(=O)[C@@H]1CCc2cnc(NCc3ccccc3)c(=O)n21` [Compound 104, (S)-N-((6-amino-2-methylpyridin-3-yl)methyl)-3-(benzylamino)-4-oxo-4,6,7,8-tetrahydropyrrolo[1,2-a]pyrazine-6-carboxamide], the Ki at human α-thrombin and on MASP-2 (CCP1-CCP2-SP) was below 500 nM throughout.

Take `O=C(NCc1cc2cnccc2[nH]1)[C@@H]1CCc2c(Cl)nc(NCc3ccccc3)c(=O)n21` [Compound 105, (S)—N-((1H-pyrrolo[3,2-c]pyridin-2-yl)methyl)-3-(benzylamino)-1-chloro-4-oxo-4,6,7,8-tetrahydropyrrolo[1,2-a]pyrazine-6-carboxamide]: the Ki on human α-thrombin is 10000 to 25000 nM; on MASP-2 (CCP1-CCP2-SP) it was below 500 nM.

For the molecule `O=C(NCc1cc2cnccc2[nH]1)[C@@H]1CCc2c(Cl)nc(NC3(c4ccccc4)CC3)c(=O)n21` [Compound 106, (S)-N-((1H-pyrrolo[3,2-c]pyridin-2-yl)methyl)-1-chloro-4-oxo-3-((1-phenylcyclopropyl)amino)-4,6,7,8-tetrahydropyrrolo[1,2-a]pyrazine-6-carboxamide], the values for the Ki at human α-thrombin and at MASP-2 (CCP1-CCP2-SP) were 2500 to 10000 nM and below 500 nM, respectively.

With `O=C(NCc1cc(Cl)ccc1-n1cnnn1)[C@@H]1CCc2c(Cl)nc(NCc3ccccc3)c(=O)n21` [Compound 107, (S)-3-(benzylamino)-1-chloro-N-(5-chloro-2-(1H-tetrazol-1-yl)benzyl)-4-oxo-4,6,7,8-tetrahydropyrrolo[1,2-a]pyrazine-6-carboxamide], the inhibitory constant (Ki) on human α-thrombin is below 500 nM; at MASP-2 (CCP1-CCP2-SP) it was 500 to 2500 nM.

Regarding `Cc1cc(C)cc(CNc2ncc3n(c2=O)[C@H](C(=O)NCc2cnc4c(c2)CNC4)CC3)c1` [Compound 108, (S)—N-((6,7-dihydro-5H-pyrrolo[3,4-b]pyridin-3-yl)methyl)-3-((3,5-dimethylbenzyl)amino)-4-oxo-4,6,7,8-tetrahydropyrrolo[1,2-a]pyrazine-6-carboxamide], the results for the inhibition constant (Ki) at human α-thrombin and at MASP-2 (CCP1-CCP2-SP) were 10000 to 25000 nM and below 500 nM, respectively.

For the molecule `Cc1cc(C)cc(CNc2ncc3n(c2=O)[C@H](C(=O)NCc2ccc(CN)nc2)CC3)c1` [Compound 109, (S)-N-((6-(aminomethyl)pyridin-3-yl)methyl)-3-((3,5-dimethylbenzyl)amino)-4-oxo-4,6,7,8-tetrahydropyrrolo[1,2-a]pyrazine-6-carboxamide trifluoroacetate], the Ki is 2500 to 10000 nM on human α-thrombin and below 500 nM on MASP-2 (CCP1-CCP2-SP).

`Cc1cccc(C2(Nc3nc(Cl)c4n(c3=O)[C@H](C(=O)NCc3cc5cnccc5[nH]3)CC4)CC2)c1` [Compound 110, (S)—N-((1H-pyrrolo[3,2-c]pyridin-2-yl)methyl)-1-chloro-4-oxo-3-((1-(m-tolyl)cyclopropyl)amino)-4,6,7,8-tetrahydropyrrolo[1,2-a]pyrazine-6-carboxamide trifluoroacetate]: the Ki on human α-thrombin is 2500 to 10000 nM; at MASP-2 (CCP1-CCP2-SP), below 500 nM.

As to `Cc1cccc(C2(Nc3ncc4n(c3=O)[C@H](C(=O)NCc3cc5cnccc5[nH]3)CC4)CC2)c1` [Compound 111, (S)—N-((1H-pyrrolo[3,2-c]pyridin-2-yl)methyl)-4-oxo-3-((1-(m-tolyl)cyclopropyl)amino)-4,6,7,8-tetrahydropyrrolo[1,2-a]pyrazine-6-carboxamide trifluoroacetate], the inhibition constant Ki on human α-thrombin was 2500 to 10000 nM; at MASP-2 (CCP1-CCP2-SP), below 500 nM.

As for `O=C(NCc1cc2cnccc2[nH]1)[C@@H]1CCc2c(Cl)nc(NCC3CCCCC3)c(=O)n21` [Compound 112, (S)-N-((1H-pyrrolo[3,2-c]pyridin-2-yl)methyl)-1-chloro-3-((cyclohexylmethyl)amino)-4-oxo-4,6,7,8-tetrahydropyrrolo[1,2-alpyrazine-6-carboxamide trifluoroacetate], the Ki on human α-thrombin is above 25000 nM; at MASP-2 (CCP1-CCP2-SP), below 500 nM.

As for `O=C(NCc1cc2cnccc2[nH]1)[C@@H]1CCc2cnc(NCC3CCCCC3)c(=O)n21` [Compound 113, (S)-N-((1H-pyrrolo[3,2-c]pyridin-2-yl)methyl)-3-((cyclohexylmethyl)amino)-4-oxo-4,6,7,8-tetrahydropyrrolo[1,2-alpyrazine-6-carboxamide trifluoroacetate], the inhibitory constant (Ki) on human α-thrombin is 2500 to 10000 nM; on MASP-2 (CCP1-CCP2-SP), below 500 nM.
